What was measured:
Assay in all cases: relative viability (nuclei count vs DMSO), 5 days (fraction); higher = more cells survive
Midostaurin + Lapatinib = compound: CO[C@@H]1[C@H](N(C)C(=O)c2ccccc2)C[C@H]2O[C@]1(C)n1c3ccccc3c3c4c(c5c6ccccc6n2c5c31)C(=O)NC4 [Midostaurin] + CS(=O)(=O)CCNCc1ccc(-c2ccc3ncnc(Nc4ccc(OCc5cccc(F)c5)c(Cl)c4)c3c2)o1 [Lapatinib] (partner 2 µM)
Method in brief: (§1)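 Relative viability equals treated-well nuclei counts divided by vehicle-well nuclei counts. Counts came from 4× images of lung cancer cell lines grown in 1536-well plates for 5 days after pin-tool dosing on the day after seeding. Dosing used one drug alone or a fixed anchor-drug dose plus five library-drug doses (not always all listed) in √10 steps, and values are medians of duplicate plates.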

Midostaurin + Olaparib = compound: CO[C@@H]1[C@H](N(C)C(=O)c2ccccc2)C[C@H]2O[C@]1(C)n1c3ccccc3c3c4c(c5c6ccccc6n2c5c31)C(=O)NC4 [Midostaurin] + O=C(c1cc(Cc2n[nH]c(=O)c3ccccc23)ccc1F)N1CCN(C(=O)C2CC2)CC1 [Olaparib] (partner 8 µM)
Method in brief: as §1

[1] = compound: COc1cc(-c2nn([C@H]3CC[C@H](N4CCN(C(C)=O)CC4)CC3)c3ncnc(N)c23)ccc1NC(=O)c1cc2ccccc2n1C + COc1cccc2cc(-c3nc([C@H]4CC[C@H](C(=O)O)CC4)n4ncnc(N)c34)[nH]c12 [OSI-027] (partner 0.5 µM)
Method in brief: as §1

[2] = compound: COc1cc(-c2nn([C@H]3CC[C@H](N4CCN(C(C)=O)CC4)CC3)c3ncnc(N)c23)ccc1NC(=O)c1cc2ccccc2n1C + Cc1cc(Nc2cc(N3CCN(C)CC3)nc(Sc3ccc(NC(=O)C4CC4)cc3)n2)n[nH]1 [Tozasertib] (partner 0.1 µM)
Method in brief: as §1

[3] = compound: COc1cc(-c2nn([C@H]3CC[C@H](N4CCN(C(C)=O)CC4)CC3)c3ncnc(N)c23)ccc1NC(=O)c1cc2ccccc2n1C + Nc1ncn([C@H]2C[C@H](O)[C@@H](CO)O2)c(=O)n1 [Decitabine] (partner 2 µM)
Method in brief: as §1

| Cell Line | relative viability (Midostaurin + Lapatinib; first compound 0.01 µM) | relative viability (Midostaurin + Lapatinib; first compound 0.03162 µM) | relative viability (Midostaurin + Lapatinib; first compound 0.1 µM) | relative viability (Midostaurin + Lapatinib; first compound 0.3162 µM) | relative viability (Midostaurin + Olaparib; first compound 0.01 µM) | relative viability (Midostaurin + Olaparib; first compound 0.03162 µM) | relative viability (Midostaurin + Olaparib; first compound 0.1 µM) | relative viability (Midostaurin + Olaparib; first compound 0.3162 µM) | relative viability ([1]; first compound 0.0128 µM) | relative viability ([1]; first compound 0.04048 µM) | relative viability ([1]; first compound 0.128 µM) | relative viability ([1]; first compound 1.28 µM) | relative viability ([2]; first compound 0.0128 µM) | relative viability ([2]; first compound 0.04048 µM) | relative viability ([2]; first compound 0.128 µM) | relative viability ([2]; first compound 1.28 µM) | relative viability ([3]; first compound 0.0128 µM) | relative viability ([3]; first compound 0.04048 µM) | relative viability ([3]; first compound 0.128 µM) | relative viability ([3]; first compound 1.28 µM) |
| --- | --- | --- | --- | --- | --- | --- | --- | --- | --- | --- | --- | --- | --- | --- | --- | --- | --- | --- | --- | --- |
| Calu-6 | 0.94 | 1.02 | 1.02 | 0.986 | 0.421 | 0.638 | 0.509 | 0.495 |  |  |  |  |  |  |  |  |  |  |  |  |
| ChaGo-K-1 |  |  |  |  | 0.439 | 0.404 | 0.338 | 0.433 | 0.607 | 0.532 | 0.519 | 0.464 | 0.215 | 0.218 | 0.211 | 0.195 | 0.493 | 0.513 | 0.497 | 0.508 |
| EBC-1 | 0.208 | 0.212 | 0.217 | 0.222 | 0.719 | 0.589 | 0.673 | 0.679 |  |  |  |  |  |  |  |  |  |  |  |  |
| EKVX | 0.214 | 0.127 | 0.242 | 0.212 | 0.836 | 0.847 | 0.738 | 0.775 | 0.765 | 0.853 | 0.618 | 0.54 | 0.398 | 0.379 | 0.332 | 0.19 | 0.372 | 0.36 | 0.349 | 0.288 |
| EMC-BAC-2 | 0.869 | 0.828 | 0.872 | 0.885 | 0.459 | 0.497 | 0.411 | 0.374 | 0.347 | 0.531 | 0.385 | 0.352 | 0.276 | 0.377 | 0.331 | 0.273 | 1 | 0.941 | 0.913 | 0.955 |
| EPLC-272H | 0.918 | 0.867 | 0.75 | 0.855 | 0.659 | 0.729 | 0.658 | 0.372 | 0.27 |  | 0.293 | 0.264 | 0.38 |  | 0.235 | 0.19 | 0.444 | 0.315 | 0.342 | 0.312 |
| H3255 | 0.35 | 0.282 | 0.259 | 0.22 | 0.515 | 0.538 | 0.498 | 0.533 | 0.564 | 0.476 | 0.573 | 0.552 | 0.829 | 0.591 | 0.571 | 0.581 | 0.617 | 0.504 | 0.609 | 0.472 |
| HARA | 0.641 | 0.665 | 0.522 | 1.01 | 0.786 | 0.842 | 0.644 | 0.752 | 0.489 | 0.312 | 0.482 | 0.248 | 0.11 | 0.0748 | 0.101 | 0.0842 | 0.609 | 0.699 | 0.612 | 0.381 |
| HCC-15 | 0.85 | 0.776 | 0.692 | 0.921 | 0.747 | 0.734 | 0.678 | 0.641 | 0.832 | 0.463 | 0.616 | 0.586 | 0.332 | 0.473 | 0.331 | 0.247 | 0.822 | 0.589 | 0.638 | 0.567 |

From the supplement of paper PMC10307832
